Assay results as given in PubChem BioAssay AID2060894 (Molecular Pharmacology Branch, DTP, NCI, 2025).

Tested on: K12877-001-R-J1-PDC complex spheroid viability
Experiment: Anticancer human tumor K12877-001-R-J1-PDC patient-derived lung adenocarcinoma cell line growth inhibition [RAS]
Conditions: for IC50: curve of first compound; for viability, T/C: stronger effect = lower value
Procedure, shortened: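 Agents were tested in combination matrices in half-log decrements from a top concentration at or near clinical Cmax (10 microM if undetermined). Targets were multi-cell spheroids of tumour lines plus HUVEC and MSC stromal cells.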
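Further: spheroids exposed to agents for one week before readout.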
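Wherever viability, T/C is given: tumour cells co-cultured with HUVEC and mesenchymal stem cells in spheroids.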

`CC(C)NCC(C(=O)N1CCN(c2ncnc3c2C(C)CC3O)CC1)c1ccc(Cl)cc1` (centres undefined) + C#Cc1c(F)ccc2cc(O)cc(-c3ncc4c(N5CC6CCC(C5)N6)nc(OCC56CCCN5CC(F)C6)nc4c3F)c12 was tested, and the IC50 (second compound 0.0316 µM) was 6150 nM, the IC50 (second compound 0.1 µM) was 5290 nM and the IC50 (second compound 0.316 µM) was 7950 nM. It also gave an IC50 (second compound 1 µM) of 5790 nM, an IC50 (second compound 3.16 µM) of 6060 nM and an IC50 (second compound 10 µM) of 3010 nM. The viability, T/C (second compound 0.0316 µM, first compound 0.0316 µM) was 101%, the viability, T/C (second compound 0.0316 µM, first compound 0.1 µM) was 95.4% and the viability, T/C (second compound 0.0316 µM, first compound 0.316 µM) was 100%. The viability, T/C (second compound 0.0316 µM, first compound 1 µM) was 86.5%, the viability, T/C (second compound 0.0316 µM, first compound 3.16 µM) was 58.4% and the viability, T/C (second compound 0.0316 µM, first compound 10 µM) was 44%. It also gave a viability, T/C (second compound 0.1 µM, first compound 0.0316 µM) of 90%, a viability, T/C (second compound 0.1 µM, first compound 0.1 µM) of 103% and a viability, T/C (second compound 0.1 µM, first compound 0.316 µM) of 87.7%. For the same molecule, the viability, T/C (second compound 0.1 µM, first compound 1 µM) was 96.6%, the viability, T/C (second compound 0.1 µM, first compound 3.16 µM) was 58.8% and the viability, T/C (second compound 0.1 µM, first compound 10 µM) was 39%. The viability, T/C (second compound 0.316 µM, first compound 0.0316 µM) was 105%, the viability, T/C (second compound 0.316 µM, first compound 0.1 µM) was 103% and the viability, T/C (second compound 0.316 µM, first compound 0.316 µM) was 78.9%. It also gave a viability, T/C (second compound 0.316 µM, first compound 1 µM) of 92.4%, a viability, T/C (second compound 0.316 µM, first compound 3.16 µM) of 62% and a viability, T/C (second compound 0.316 µM, first compound 10 µM) of 45.5%. It also gave a viability, T/C (second compound 1 µM, first compound 0.0316 µM) of 104%, a viability, T/C (second compound 1 µM, first compound 0.1 µM) of 103% and a viability, T/C (second compound 1 µM, first compound 0.316 µM) of 87.6%. For the same molecule, the viability, T/C (second compound 1 µM, first compound 1 µM) was 95.3%, the viability, T/C (second compound 1 µM, first compound 3.16 µM) was 55.4% and the viability, T/C (second compound 1 µM, first compound 10 µM) was 45.1%. The viability, T/C (second compound 3.16 µM, first compound 0.0316 µM) was 105%, the viability, T/C (second compound 3.16 µM, first compound 0.1 µM) was 102% and the viability, T/C (second compound 3.16 µM, first compound 0.316 µM) was 99.4%. The viability, T/C (second compound 3.16 µM, first compound 1 µM) was 91.1%, the viability, T/C (second compound 3.16 µM, first compound 3.16 µM) was 63.6% and the viability, T/C (second compound 3.16 µM, first compound 10 µM) was 39.4%. It also gave a viability, T/C (second compound 10 µM, first compound 0.0316 µM) of 98%, a viability, T/C (second compound 10 µM, first compound 0.1 µM) of 93.3% and a viability, T/C (second compound 10 µM, first compound 0.316 µM) of 89%. The viability, T/C (second compound 10 µM, first compound 1 µM) was 94.1%, the viability, T/C (second compound 10 µM, first compound 3.16 µM) was 48% and the viability, T/C (second compound 10 µM, first compound 10 µM) was 32.8%.

Work on `O=C(c1ccc(F)c(F)c1Nc1ccc(I)cc1F)N1CC(O)([C@@H]2CCCCN2)C1` + CCn1c(-c2cccnc2C(C)OC)c2c3cc(ccc31)N1CCOC(CC(NC(=O)C(C(C)C)N(C)C(=O)C3(F)CCN(C(=O)C#CC(C)(C)N(C)C)CC3)C(=O)N3CCCC(N3)C(=O)OCC(C)(C)C2)C1 yielded an IC50 (second compound 0.000949 µM) of 300 nM, an IC50 (second compound 0.003 µM) of 239 nM and an IC50 (second compound 0.00949 µM) of 144 nM. It also gave an IC50 (second compound 0.03 µM) of 227 nM, an IC50 (second compound 0.0949 µM) of 129 nM and an IC50 (second compound 0.3 µM) of 58.7 nM. The viability, T/C (second compound 0.000949 µM, first compound 0.00316 µM) was 81.2%, the viability, T/C (second compound 0.000949 µM, first compound 0.01 µM) was 77.5% and the viability, T/C (second compound 0.000949 µM, first compound 0.0316 µM) was 80.8%. The viability, T/C (second compound 0.000949 µM, first compound 0.1 µM) was 66.5%, the viability, T/C (second compound 0.000949 µM, first compound 0.316 µM) was 49.9% and the viability, T/C (second compound 0.000949 µM, first compound 1 µM) was 35.4%. The viability, T/C (second compound 0.003 µM, first compound 0.00316 µM) was 72.6%, the viability, T/C (second compound 0.003 µM, first compound 0.01 µM) was 69.8% and the viability, T/C (second compound 0.003 µM, first compound 0.0316 µM) was 67.5%. It also gave a viability, T/C (second compound 0.003 µM, first compound 0.1 µM) of 66.8%, a viability, T/C (second compound 0.003 µM, first compound 0.316 µM) of 44.6% and a viability, T/C (second compound 0.003 µM, first compound 1 µM) of 28.6%. For the same molecule, the viability, T/C (second compound 0.00949 µM, first compound 0.00316 µM) was 71.1%, the viability, T/C (second compound 0.00949 µM, first compound 0.01 µM) was 62.6% and the viability, T/C (second compound 0.00949 µM, first compound 0.0316 µM) was 70.7%. It also gave a viability, T/C (second compound 0.00949 µM, first compound 0.1 µM) of 55.4%, a viability, T/C (second compound 0.00949 µM, first compound 0.316 µM) of 37.7% and a viability, T/C (second compound 0.00949 µM, first compound 1 µM) of 32.7%. It also gave a viability, T/C (second compound 0.03 µM, first compound 0.00316 µM) of 66.1%, a viability, T/C (second compound 0.03 µM, first compound 0.01 µM) of 72.8% and a viability, T/C (second compound 0.03 µM, first compound 0.0316 µM) of 73.1%. It also gave a viability, T/C (second compound 0.03 µM, first compound 0.1 µM) of 59%, a viability, T/C (second compound 0.03 µM, first compound 0.316 µM) of 46.3% and a viability, T/C (second compound 0.03 µM, first compound 1 µM) of 28.9%. The viability, T/C (second compound 0.0949 µM, first compound 0.00316 µM) was 76.7%, the viability, T/C (second compound 0.0949 µM, first compound 0.01 µM) was 64.5% and the viability, T/C (second compound 0.0949 µM, first compound 0.0316 µM) was 69.5%. The viability, T/C (second compound 0.0949 µM, first compound 0.1 µM) was 45.9%, the viability, T/C (second compound 0.0949 µM, first compound 0.316 µM) was 44.3% and the viability, T/C (second compound 0.0949 µM, first compound 1 µM) was 33.9%. The viability, T/C (second compound 0.3 µM, first compound 0.00316 µM) was 70%, the viability, T/C (second compound 0.3 µM, first compound 0.01 µM) was 65.6% and the viability, T/C (second compound 0.3 µM, first compound 0.0316 µM) was 52.1%. For the same molecule, the viability, T/C (second compound 0.3 µM, first compound 0.1 µM) was 45.6%, the viability, T/C (second compound 0.3 µM, first compound 0.316 µM) was 40.1% and the viability, T/C (second compound 0.3 µM, first compound 1 µM) was 31%.
